According to patent US8466202B2, “Anthracenedione compounds” (Sunten Phytotech Co., Ltd., priority 2006, dated 2013):

Test system: healthy male S.D. rats
Assay: Feces production in rats over the 10-day period (Example 3)
Format: in vivo, rat
Conditions: Sennosides 3.35 mg/kg
Procedure, shortened: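 Male S.D. rats (n=6 per arm) received sennosides 3.35 mg/kg/day, STD05 or ARE at 8 or 24 mg/kg/day, single anthraquinones at 4 mg/kg/day, or CP at 8 mg/kg/day over 10 days, with untreated controls. On days 1, 5 and 10, rats in metabolic cages gave 24-h feces, which were weighed wet, counted and dried at 100° C. to derive water content.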

[1] = Group I, Day 1, STD05 8 mg/kg, ARE 8 mg/kg, Aloe-emodin 4 mg/kg, Rhein 4 mg/kg
[2] = Group I, Day 5, STD05 8 mg/kg, ARE 8 mg/kg, Aloe-emodin 4 mg/kg, Rhein 4 mg/kg
[3] = Group I, Day 10, STD05 8 mg/kg, ARE 8 mg/kg, Aloe-emodin 4 mg/kg, Rhein 4 mg/kg
[4] = Group II, Day 1, STD05 24 mg/kg, ARE 24 mg/kg, Chrysophanol 4 mg/kg, Emodin 4 mg/kg
[5] = Group II, Day 5, STD05 24 mg/kg, ARE 24 mg/kg, Chrysophanol 4 mg/kg, Emodin 4 mg/kg
[6] = Group II, Day 10, STD05 24 mg/kg, ARE 24 mg/kg, Chrysophanol 4 mg/kg, Emodin 4 mg/kg

Sennosides
Pellet count [1]: 101
Water content [1]: 45.69%
Wet Weight [1]: 18.72 g
Pellet count [2]: 119
Water content [2]: 48.68%
Wet Weight [2]: 26.16 g
Pellet count [3]: 146
Water content [3]: 57.4%
Wet Weight [3]: 36.38 g
Pellet count [4]: 134
Water content [4]: 61.09%
Wet Weight [4]: 36.19 g
Pellet count [5]: 118
Water content [5]: 61.53%
Wet Weight [5]: 36.42 g
Pellet count [6]: 132
Water content [6]: 53.99%
Wet Weight [6]: 36.21 g
